Data from ChEMBL document CHEMBL4651402, “Screening of ~5500 FDA-approved drugs and clinical candidates for anti-SARS-CoV-2 activity” (2021).

Tested on: SARS-CoV-2
Experiment: microbe, parasite or virus in culture
Conditions: Severe acute respiratory syndrome coronavirus 2, Vero C1008, 48 h

| SMILES | IC50 [µM] | IC50 (read-out: pIC50 (converted)) [µM] |
| --- | --- | --- |
| CNNCc1ccc(C(=O)NC(C)C)cc1 [PROCARBAZINE] | > 20 | > 20 |
| CCC(NC(C)C)C(O)c1ccc(O)c2[nH]c(=O)ccc12 (stereo not drawn) [PROCATEROL] | > 20 | > 20 |
| CN1CCN(CCCN2c3ccccc3Sc3ccc(Cl)cc32)CC1 [PROCHLORPERAZINE] | > 20 | > 20 |
| OC(c1ccc(Cl)cc1)(c1ccc(Cl)cc1)C1CC1 [PROCLONOL] | > 20 | > 20 |
| O=C(O)CCc1nc2ccccc2[nH]1 [PROCODAZOLE] | > 20 | > 20 |
| OC(CCN1CCCC1)(c1ccccc1)C1CCCCC1 (stereo not drawn) [PROCYCLIDINE] | > 20 | > 20 |
| CCC(=O)OC1(c2ccccc2)CCN(C)C1C (stereo not drawn) [PRODILIDINE] | > 20 | > 20 |
| CCCC1(c2cccc(O)c2)CCN(C)C1 (stereo not drawn) [PROFADOL] | > 20 | > 20 |
| CC(=O)[C@H]1CC[C@H]2[C@@H]3CCC4=CC(=O)CC[C@]4(C)[C@H]3CC[C@]12C [PROGESTERONE] | > 20 | > 20 |
| CCCN(CCC)C(=O)C(CCC(=O)O)NC(=O)c1ccccc1 (stereo not drawn) [PROGLUMIDE] | > 20 | > 20 |
| CC(C)NC(=N)NC(=N)Nc1ccc(Cl)cc1 [PROGUANIL] | > 20 | > 20 |
| O=C(O)[C@@H]1CCCN1 [PROLINE] | > 20 | > 20 |
| CC(C)NCC(O)c1ccc2ccccc2c1 (stereo not drawn) [PRONETALOL] | > 20 | > 20 |
| CCCNCC(O)COc1ccccc1C(=O)CCc1ccccc1 (stereo not drawn) [PROPAFENONE] | > 20 | > 20 |
| CCCOC(=O)Cc1ccc(OCC(=O)N(CC)CC)c(OC)c1 [PROPANIDID] | > 20 | > 20 |
| CC(C)[N+](C)(CCOC(=O)C1c2ccccc2Oc2ccccc21)C(C)C [PROPANTHELINE] | > 20 | > 20 |
| CCCOc1ccc(C(=O)OCCN(CC)CC)cc1N [PROPARACAINE] | > 20 | > 20 |

| SMILES | IC50 [µM] | IC50 (read-out: pIC50 (converted)) [µM] |
| --- | --- | --- |
| CCCn1cnc2c1c(=O)n(CCCCC(C)=O)c(=O)n2C [PROPENTOFYLLINE] | > 20 | > 20 |
| CC(C)OC(=O)C1(c2ccccc2)CCN(C)CC1 [PROPERIDINE] | > 20 | > 20 |
| CCC(=O)O [PROPIONIC ACID] | > 20 | > 20 |
| CC(C)c1cccc(C(C)C)c1O [PROPOFOL] | > 20 | > 20 |
| CCCOc1cc(N)ccc1C(=O)OCCN(CC)CC [PROPOXYCAINE] | > 20 | > 20 |
| CCC(=O)O[C@](Cc1ccccc1)(c1ccccc1)[C@H](C)CN(C)C [PROPOXYPHENE] | > 20 | > 20 |
| CC(O)CO (stereo not drawn) [PROPYLENE GLYCOL] | > 20 | > 20 |
| CCCOC(=O)c1ccc(O)cc1 [PROPYLPARABEN] | > 20 | > 20 |
| Cc1c(C(C)C)c(=O)n(-c2ccccc2)n1C [PROPYPHENAZONE] | > 20 | > 20 |
| Cc1ccc2c(-c3ccccc3)nc(=O)n(C(C)C)c2c1 [PROQUAZONE] | > 20 | > 20 |
| CCCc1cc(C(N)=S)ccn1 [PROTIONAMIDE] | > 20 | > 20 |
| COc1ccc2c(c1)Sc1ccc(C(C)C(=O)O)cc1N2C (stereo not drawn) [PROTIZINIC ACID] | > 20 | > 20 |
| CC(O)Cn1cnc2c1c(=O)n(C)c(=O)n2C (stereo not drawn) [PROXYPHYLLINE] | > 20 | > 20 |
| c1ccc(C(CCN2CCCCCC2)c2ccccc2)cc1 [PROZAPINE] | > 20 | > 20 |
| Cc1oc(=O)oc1CN1CCN(c2cc3c(cc2F)c(=O)c(C(=O)O)c2n3C(C)S2)CC1 (stereo not drawn) [PRULIFLOXACIN] | > 20 | > 20 |
| N#Cc1cc(CN2CCC(Nc3ncnc4sc(Cl)cc34)CC2)ccc1F [PRX-08066 FREE BASE] | > 20 | > 20 |
| CN[C@@H](C)[C@@H](O)c1ccccc1 [PSEUDOEPHEDRINE] | > 20 | > 20 |
